Source: patent publication US20180369203A1, “METHODS OF TREATING CANCER BY ADMINISTERING A MEK INHIBITOR IN COMBINATION WITH A PROTEASOME INHIBITOR” (The Jackson Laboratory, priority 2015, published 2018)

What was measured:
Aβ1-42 peptides = assay: In vitro amyloid seeding of Aβ1-42 with lysates of treated A2058 cells (ThT binding, TEM); assay type: cell-based, human
Protocol: FIGS. 5A-Y show MEK and proteasome inhibition provoke protein aggregation and amyloidogenesis. (A-B) WM115 cells treated with 20 nM AZD6244, 100 nM Bortezomib, or both for 24 hr were stained with Lys48-specific ubiquitin antibodies. Arrowheads mark ubiquitin-positive aggregates. Scale bar: 10 μm. Amounts of aggregates per cell were quantitated using ImageJ (median, n≥100, ANOVA). (C-F) Following transfection with polyQ79 plasmids alone or with both polyQ79 and HSF1^S326D plasmids for one day, HEK293T cells were treated with inhibitors as described in (A-B). Cells were either analyzed for aggregate size or stained with 10 μM ThT. (G) Treated tumor cell lines were stained with 10 μM ThT. Geometric means were used to calculate fold changes in ThT fluorescence intensity and the log 2(FC) values were presented as a heat map. […] Following treatments, AOs were quantitated by ELISA using A11 antibodies (mean±SD, n=3, ANOVA). (I) Intrinsic AOs were detected in human tumor cell lines (mean±SD, n=3, ANOVA). […] Amyloids were quantitated by ELISA (mean±SD, n=3, Student's t-test). […] AF formation was monitored by ThT binding (mean±SD, n=3, ANOVA). […] Amyloids were quantitated (mean±SD, n=3, Student's t-test). […] Viable cells were quantitated by CellTiter® blue (mean±SD, n=6, Student's t-test). […] Viable cells were quantitated (mean±SD, n=6, ANOVA). […]
This figure is related to FIG. 5. […] (C) Quantitation of protein aggregate size. […]

amyloid oligomers (AOs) = assay: Amyloid oligomer ELISA (A11) in human tumor, immortalized and primary cells; assay type: cell-based; conditions: 20 nM AZD6244, 100 nM Bortezomib, or both, 24 hr
Protocol: FIGS. 5A-Y show MEK and proteasome inhibition provoke protein aggregation and amyloidogenesis. (A-B) WM115 cells treated with 20 nM AZD6244, 100 nM Bortezomib, or both for 24 hr were stained with Lys48-specific ubiquitin antibodies. Arrowheads mark ubiquitin-positive aggregates. Scale bar: 10 μm. Amounts of aggregates per cell were quantitated using ImageJ (median, n≥100, ANOVA). (C-F) Following transfection with polyQ79 plasmids alone or with both polyQ79 and HSF1^S326D plasmids for one day, HEK293T cells were treated with inhibitors as described in (A-B). Cells were either analyzed for aggregate size or stained with 10 μM ThT. (G) Treated tumor cell lines were stained with 10 μM ThT. Geometric means were used to calculate fold changes in ThT fluorescence intensity and the log 2(FC) values were presented as a heat map. (H) HEK293T cells were transfected with LacZ or polyQ79 plasmid. Following treatments, AOs were quantitated by ELISA using A11 antibodies (mean±SD, n=3, ANOVA). (I) Intrinsic AOs were detected in human tumor cell lines (mean±SD, n=3, ANOVA). […] Amyloids were quantitated by ELISA (mean±SD, n=3, Student's t-test). […] AF formation was monitored by ThT binding (mean±SD, n=3, ANOVA). […] Amyloids were quantitated (mean±SD, n=3, Student's t-test). […] Viable cells were quantitated by CellTiter® blue (mean±SD, n=6, Student's t-test). […] Viable cells were quantitated (mean±SD, n=6, ANOVA). Relative changes in viable cells after treatment were calculated by normalizing the values of AZD6244-treated cells against the values of DMSO-treated cells at each time point. (U)-(W) Following treatments with 20 nM AZD6244, 100 nM Bortezomib, or both for 24 hr, AOs were quantitated in primary MEFs and human cells (mean±SD, n=3, ANOVA). (X and Y) Cells were treated with 50 μM Q-VD-OPh overnight and AOs were quantitated (mean±SD, n=3, Student's t-test). […]
To quantitate soluble amyloid prefibrillar oligomers, 20 μg soluble cellular proteins diluted in PBS were incubated for each well in a 96-well ELISA plate at 4° C. overnight followed by blocking (5% non-fat milk in PBS-T) at RT for 1 hr. […]

polyQ79-expressing cells = assay: ThT and CR staining of polyQ79-expressing cells (flow cytometry); assay type: cell-based; conditions: HEK293T; 20 nM AZD6244, 100 nM Bortezomib, or both
Protocol: (§1) FIGS. 5A-Y show MEK and proteasome inhibition provoke protein aggregation and amyloidogenesis. (A-B) WM115 cells treated with 20 nM AZD6244, 100 nM Bortezomib, or both for 24 hr were stained with Lys48-specific ubiquitin antibodies. Arrowheads mark ubiquitin-positive aggregates. Scale bar: 10 μm. Amounts of aggregates per cell were quantitated using ImageJ (median, n≥100, ANOVA). (C-F) Following transfection with polyQ79 plasmids alone or with both polyQ79 and HSF1^S326D plasmids for one day, HEK293T cells were treated with inhibitors as described in (A-B). Cells were either analyzed for aggregate size or stained with 10 μM ThT. (G) Treated tumor cell lines were stained with 10 μM ThT. Geometric means were used to calculate fold changes in ThT fluorescence intensity and the log 2(FC) values were presented as a heat map. (H) HEK293T cells were transfected with LacZ or polyQ79 plasmid. Following treatments, AOs were quantitated by ELISA using A11 antibodies (mean±SD, n=3, ANOVA). (I) Intrinsic AOs were detected in human tumor cell lines (mean±SD, n=3, ANOVA). […] Amyloids were quantitated by ELISA (mean±SD, n=3, Student's t-test). […] AF formation was monitored by ThT binding (mean±SD, n=3, ANOVA). […] Amyloids were quantitated (mean±SD, n=3, Student's t-test). […] Viable cells were quantitated by CellTiter® blue (mean±SD, n=6, Student's t-test). […] Viable cells were quantitated (mean±SD, n=6, ANOVA). […]

WM115 cells = assay: Lys48 ubiquitin immunostaining of aggregates in melanoma cells; assay type: cell-based, human; conditions: 20 nM AZD6244, 100 nM Bortezomib, or both, 24 hr
Protocol: as §1

## CC(C)C[C@H](NC(=O)[C@H](Cc1ccccc1)NC(=O)c1cnccn1)B(O)O [Bortezomib, bortezomib]
Aβ1-42 peptides; 20 μM Aβ1-42, ThT binding
  amyloid seeding efficacy of cell lysates: augmented
Aβ1-42 peptides; 37° C., 2 days
  fibril morphology after seeding (transmission electron microscopy): mature fibrils
Amyloid oligomers (AOs); immortalized human mammary epithelial cells
  AO levels in MCF10A cells: slight induction
Amyloid oligomers (AOs); primary human mammary epithelial cells
  AO levels in PHMC: no induction
Amyloid oligomers (AOs); tumorigenic mammary epithelial cells
  AO levels in MCF7 cells: marked AO induction
polyQ79-expressing cells
  ThT and CR staining of polyQ79-expressing cells: further intensified
WM115 cells
  ubiquitin-containing aggregates (punctate foci): bright fluorescent punctate foci emerged
